Consider nine compounds from patent publication US9499550B2 (BRISTOL-MYERS SQUIBB COMPANY, priority 2012, dated 2016).

The test system of experiment [1] is HCV genotype 1a (H77 strain) replicon in HUH-7 cells. Briefly: HCV replicon luciferase reporter assay, genotype 1a. The format is cell-based. The note with it: Hepatitis C virus, Huh-7, 72 h, HCV genotype 1a replicon luciferase assay, 3 days incubation. The procedure, abridged: (§1)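 Replicon inhibition for both genotypes was measured as Renilla luciferase signal (EnduRen, 7.5 μM final, 2 h) after 3-day, 37° C exposure of replicon-bearing HUH-7 cells in 4% FCS DMEM, 0.5% DMSO. The 1b construct carries S1179I; the 1a H77 construct carries P1496L and S2204I. Twenty-point, 3-fold dilutions were fitted four-parametrically for EC50, and CC50 was taken from multiplexed Cell Titer-Blue.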

The subject of experiment [2] is HCV genotype 1b (Con1) replicon in HUH-7 cells. The experiment is described as follows: HCV replicon luciferase reporter assay, genotype 1b. The format is cell-based. The note with it: Hepatitis C virus, Huh-7, 72 h, HCV genotype 1b replicon luciferase assay, 3 days incubation. Summed up:
as §1

Setting [3] is: range class, read-out: LE_1a (EC50, range).
[4] abbreviates: range class, read-out: LE_1b (EC50, range).

Where two headings read alike, the source gives them in different places.

A word on the EC50: it is the midpoint of the concentration-response curve. As to `COCCn1nc(O[C@@H]2C[C@H]3C(=O)N[C@]4(C(=O)NS(=O)(=O)C5(C)CC5)C[C@H]4/C=C\CC[C@H](C)C[C@@H](C)[C@H](NC(=O)OC(C)(C)C(C)(F)F)C(=O)N3C2)c2ccccc2c1=O` [Compound 1019, 3,3-difluoro-2-methylbutan-2-yl((2R,6S,7R,9S,13aS,14aR,16aS,Z)-2-((3-(2-methoxyethyl)-4-oxo-3,4-dihydrophthalazin-1-yl)oxy)-7,9-dimethyl-14a-(((1-methylcyclopropyl)sulfonyl)carbamoyl)-5,16-dioxo-1,2,3,5,6,7,8,9,10,11,13a,14,14a,15,16,16a-hexadecahydrocyclopropa[e]pyrrolo[1,2-a][1,4]diazacyclopentadecin-6-yl)carbamate], the EC50 was above 0.0874 µM in experiment [1] (setting [3]), at least 1 µM in experiment [1] (read-out: LE_1a (EC50)), above 0.0874 µM in experiment [2] (setting [4]) and 0.506 µM in experiment [2] (read-out: LE_1b (EC50)).

Take `COCCn1nc(O[C@@H]2C[C@H]3C(=O)N[C@]4(C(=O)NS(=O)(=O)C5(C)CC5)C[C@H]4/C=C\CC[C@@H](C)C[C@@H](C)[C@H](NC(=O)OC(C)(C)C(C)(F)F)C(=O)N3C2)c2ccccc2c1=O` [Compound 1020, 3,3-difluoro-2-methylbutan-2-yl((2R,6S,7R,9R,13aS,14aR,16aS,Z)-2-((3-(2-methoxyethyl)-4-oxo-3,4-dihydrophthalazin-1-yl)oxy)-7,9-dimethyl-14a-(((1-methylcyclopropyl)sulfonyl)carbamoyl)-5,16-dioxo-1,2,3,5,6,7,8,9,10,11,13a,14,14a,15,16,16a-hexadecahydrocyclopropa[e]pyrrolo[1,2-a][1,4]diazacyclopentadecin-6-yl)carbamate]: the EC50 in experiment [1] (setting [3]) and in experiment [2] (setting [4]) was 0.00482 to 0.103 µM each time.

As to `COCCn1nc(O[C@@H]2C[C@H]3C(=O)N[C@]4(C(=O)NS(=O)(=O)C5CC5)C[C@H]4/C=C\CC[C@H](C)C[C@@H](C)[C@H](NC(=O)OC(C)(C)C(F)(F)F)C(=O)N3C2)c2ccccc2c1=O` [Compound 1021, 1,1,1-trifluoro-2-methylpropan-2-yl((2R,6S,7R,9S,13aS,14aR,16aS,Z)-14a-((cyclopropylsulfonyl)carbamoyl)-2-((3-(2-methoxyethyl)-4-oxo-3,4-dihydrophthalazin-1-yl)oxy)-7,9-dimethyl-5,16-dioxo-1,2,3,5,6,7,8,9,10,11,13a,14,14a,15,16,16a-hexadecahydrocyclopropa[e]pyrrolo[1,2-a][1,4]diazacyclopentadecin-6-yl)carbamate], the EC50 in experiment [1] (setting [3]) and in experiment [2] (setting [4]) was above 0.0874 µM each time.

Regarding `COCCn1nc(O[C@@H]2C[C@H]3C(=O)N[C@]4(C(=O)NS(=O)(=O)C5CC5)C[C@H]4/C=C\CC[C@@H](C)C[C@@H](C)[C@H](NC(=O)OC(C)(C)C(F)(F)F)C(=O)N3C2)c2ccccc2c1=O` [Compound 1022, 1,1,1-trifluoro-2-methylpropan-2-yl((2R,6S,7R,9R,13aS,14aR,16aS,Z)-14a-((cyclopropylsulfonyl)carbamoyl)-2-((3-(2-methoxyethyl)-4-oxo-3,4-dihydrophthalazin-1-yl)oxy)-7,9-dimethyl-5,16-dioxo-1,2,3,5,6,7,8,9,10,11,13a,14,14a,15,16,16a-hexadecahydrocyclopropa[e]pyrrolo[1,2-a][1,4]diazacyclopentadecin-6-yl)carbamate], the EC50 in experiment [1] (setting [3]) and in experiment [2] (setting [4]) was 0.00482 to 0.103 µM in each case.

`COCCn1nc(O[C@@H]2C[C@H]3C(=O)N[C@]4(C(=O)NS(=O)(=O)C5CC5)C[C@H]4/C=C\CC[C@@H](C)C[C@@H](C)[C@H](NC(=O)OC(C)(C)C(C)(F)F)C(=O)N3C2)c2ccccc2c1=O` [Compound 1024, 3,3-difluoro-2-methylbutan-2-yl((2R,6S,7R,9R,13aS,14aR,16aS,Z)-14a-((cyclopropylsulfonyl)carbamoyl)-2-((3-(2-methoxyethyl)-4-oxo-3,4-dihydrophthalazin-1-yl)oxy)-7,9-dimethyl-5,16-dioxo-1,2,3,5,6,7,8,9,10,11,13a,14,14a,15,16,16a-hexadecahydrocyclopropa[e]pyrrolo[1,2-a][1,4]diazacyclopentadecin-6-yl)carbamate]: the EC50 in experiment [1] (setting [3]) and in experiment [2] (setting [4]) was 0.00482 to 0.103 µM throughout.

Consider `C[C@H]1CC/C=C\[C@@H]2C[C@@]2(C(=O)NS(=O)(=O)C2(C)CC2)NC(=O)[C@@H]2C[C@@H](Oc3ncc(OCC(F)F)c4ccccc34)CN2C(=O)[C@@H](NC(=O)OC(C)(C)C)[C@H](C)C1` [Compound 1025, tert-butyl ((2R,6S,7R,9S,13aS,14aR,16aS,Z)-2-((4-(2,2-difluoroethoxyl)isoquinolin-1-yl)oxy)-7,9-dimethyl-14a-(((1-methylcyclopropyl)sulfonyl)carbamoyl)-5,16-dioxo-1,2,3,5,6,7,8,9,10,11,13a,14,14a,15,16,16a-hexadecahydrocyclopropa[e]pyrrolo[1,2-a][1,4]diazacyclopentadecin-6-yl)carbamate], for which the EC50 in experiment [1] (setting [3]) was 0.00482 to 0.103 µM; in experiment [2] (setting [4]) it was below 0.00546 µM.

Regarding `C[C@@H]1CC/C=C\[C@@H]2C[C@@]2(C(=O)NS(=O)(=O)C2(C)CC2)NC(=O)[C@@H]2C[C@@H](Oc3ncc(OCC(F)F)c4ccccc34)CN2C(=O)[C@@H](NC(=O)OC(C)(C)C)[C@H](C)C1` [Compound 1026, tert-butyl ((2R,6S,7R,9R,13aS,14aR,16aS,Z)-2-((4-(2,2-difluoroethoxyl)isoquinolin-1-yl)oxy)-7,9-dimethyl-14a-(((1-methylcyclopropyl)sulfonyl)carbamoyl)-5,16-dioxo-1,2,3,5,6,7,8,9,10,11,13a,14,14a,15,16,16a-hexadecahydrocyclopropa[e]pyrrolo[1,2-a][1,4]diazacyclopentadecin-6-yl)carbamate], the EC50 in experiment [1] (setting [3]) and in experiment [2] (setting [4]) was below 0.00546 µM throughout.

Consider `COCCOc1cnc(O[C@@H]2C[C@H]3C(=O)N[C@]4(C(=O)NS(=O)(=O)C5(C)CC5)C[C@H]4/C=C\CC[C@@H](C)C[C@@H](C)[C@H](NC(=O)OC(C)(C)C)C(=O)N3C2)c2ccccc12` [Compound 1027, tert-butyl ((2R,6S,7R,9R,13aS,14aR,16aS,Z)-2-((4-(2-methoxyethoxyl)isoquinolin-1-yl)oxy)-7,9-dimethyl-14a-(((1-methylcyclopropyl)sulfonyl)carbamoyl)-5,16-dioxo-1,2,3,5,6,7,8,9,10,11,13a,14,14a,15,16,16a-hexadecahydrocyclopropa[e]pyrrolo[1,2-a][1,4]diazacyclopentadecin-6-yl)carbamate], for which the 50% effective concentration (EC50) in experiment [1] (setting [3]) and in experiment [2] (setting [4]) was below 0.00546 µM each time.

Consider `C[C@@H]1CC/C=C\[C@@H]2C[C@@]2(C(=O)NS(=O)(=O)C2CC2)NC(=O)[C@@H]2C[C@@H](Oc3ncc(OCC(F)F)c4ccccc34)CN2C(=O)[C@@H](NC(=O)OC(C)(C)C)[C@H](C)C1` [Compound 1028, tert-butyl ((2R,6S,7R,9R,13aS,14aR,16aS,Z)-14a-((cyclopropylsulfonyl)carbamoyl)-2-((4-(2,2-difluoroethoxyl)isoquinolin-1-yl)oxy)-7,9-dimethyl-5,16-dioxo-1,2,3,5,6,7,8,9,10,11,13a,14,14a,15,16,16a-hexadecahydrocyclopropa[e]pyrrolo[1,2-a][1,4]diazacyclopentadecin-6-yl)carbamate], for which the half-maximal effective concentration (EC50) in experiment [1] (setting [3]) and in experiment [2] (setting [4]) was below 0.00546 µM each time.
